The nature of this data set: Evaluation of light fastness of dye film. In kind it is physicochemical. As to conditions: residual dye ratio at absorption λmax 48 hours after Xe light irradiation; dye film on glass plate. As for the experimental part: Dye-containing coating liquids equal to those of Examples 1 to 3, and Comparative Examples 1 to 4 were prepared, and each coating liquid was applied to a 1.1-mm-thick glass plate by a spin coating method under conditions of 23° C. and 50% RH while changing the rotation rate within a range of 500 to 1,000 rpm. The glass plate with the dye film was stored for 24 hours under conditions of 23° C. and 50% RH, and then subjected to a light fastness test using a merry-go-round-type light fastness tester (Cell Tester Model III manufactured by Eagle Engineering, equipped with WG320 Filter manufactured by Schott). The absorption spectrum of the dye film was measured using UV-1600PC manufactured by SHIMADZU immediately before the light fastness test and 48 hours after the light fastness test, and the change of the absorbancy at the maximum absorption wavelength was evaluated.

In the case of `Cn1nc(C(C)(C)C)c(N=Nc2c(C#N)cnn2-c2cc(C(=O)O)cc(C(=O)O)c2)c1N` [Compound (A-1)], the “Light fastness of dye film” value was “Good (evaluated as “Good” when the ratio was 70% or more and less than 85%)”.
Turning to `CCCCC(CC)COC(=O)Nc1ccc(-c2nn3nc(C(C)(C)C)c(/N=N/c4c(C#N)cnn4-c4cc(C(=O)O)cc(C(=O)O)c4)c3[nH]2)cc1` (stereo not shown) [Compound (C)], the “Light fastness of dye film” value was “Fair (evaluated as “Fair” when the ratio was 60% or more and less than 70%)”.
The entry for `Cc1nn2nc(C(C)(C)C)c(/N=N/c3c(C#N)cnn3-c3cc(C(=O)O)cc(C(=O)O)c3)c2n1C` [Compound (A-7)] is “Excellent (Evaluated as “Excellent” when the residual dye ratio was 85% or more at the absorption λmax 48 hours after the irradiation with an Xe light)”; for `Cc1n[nH]c2c(/N=N/c3c(C#N)c(C(C)(C)C)nn3C)c(C(C)(C)C)nn12` [Compound (D)] it is “Fair (evaluated as “Fair” when the ratio was 60% or more and less than 70%)”.

The values are drawn from US20080081284A1, “OPTICAL INFORMATION RECORDING MEDIUM” (FUJIFILM Corporation, priority 2006, published 2008).
